Like-named read-outs stand apart in the source and are kept apart here.
What was measured:
AGS cell = experiment: Anti-proliferative 2D CTG assay, AGS cells; type: cell-based; conditions: Homo sapiens, 72 h
How it was run: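 Cells seeded at 1000/well overnight, then treated with 10-point 1:5 dilutions ([…], 0.1% DMSO) for 3 days at 37° C. Viability read by CellTiter-Glo luminescence; % inhibition versus HPE/ZPE controls, IC50 from four-parameter fit.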

KRAS^G12D/cRAF = KRAS^G12D/cRAF (Homo sapiens, UniProt P01116, G12D); experiment: KRAS G12D/cRAF binding test (Alphalisa); conditions: His-tagged KRAS G12D + GMPPNP, GST-tagged cRAF
How it was run: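 His-tagged KRAS G12D loaded with GMPPNP was incubated with compound (8-point 3-fold series from 5 mM DMSO stock) and then GST-cRAF for 15 min at room temperature. AlphaLISA detection followed after 60 min. IC50 came from a four-parameter fit of signal ratios against the DMSO control.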

[1] = Pharmacokinetic experiment in mice; conditions: male, ICR, mouse, plasma
Method: (§1) ICR mice male N=3 original source: Shanghai Sippr-Bk Lab Animal Co., Ltd.
(§2) Single oral (PO) administration in ICR mice: The compounds were weighed and added to the solvent of 0.5% CMC+1% Tween 80 respectively, well shaken, and ultrasonicated to get a light yellow suspension. 3 mice were administered orally after fasting overnight. The dose was 10 mg/kg.
(§3) About 90 μL/timepoint blood was collected through the orbital cavity, anticoagulated with sodium heparin, placed on ice after collection, and centrifuged to separate the plasma within 1 hour (centrifugation conditions: 8000 rpm, 6 m 2-8C). The blood collection timepoints were 0, 0.25, 0.5, 1, 2, 4, 6, 8 and 24 h. The samples were stored in a −20° C. refrigerator.
(§4) The plasma sample was 40 μL, 160 μL of ice-cold acetonitrile containing internal standard was added, vortexed for 1 minute, and centrifuged at 18,000 rpm for 10 minutes. The supernatant was transferred to a 96-well plate, and 5 μL was injected into LC-MS/MS for analysis.

in vivo = conditions: male, ICR, mouse, po, 10 mg/kg
Method: as §1, §2, §3, §4

[2] = AGS cells, incubated 3 days, CTG, class symbols, read-out: AGS cell IC50
[3] = AGS cells, incubated 3 days, CTG, numeric values, read-out: AGS cell IC50

Chain of KRAS^G12D/cRAF (P01116 1-188 isoform P01116-2 G12D): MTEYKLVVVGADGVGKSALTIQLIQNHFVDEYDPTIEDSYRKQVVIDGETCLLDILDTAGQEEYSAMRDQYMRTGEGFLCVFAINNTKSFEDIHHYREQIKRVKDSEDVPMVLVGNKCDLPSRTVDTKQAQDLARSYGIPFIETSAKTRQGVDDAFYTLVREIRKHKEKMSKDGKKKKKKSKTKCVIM

Structure (SMILES) | IC50 (AGS cell; [2]) | IC50 (KRAS^G12D/cRAF; class symbols) | AUC(0-t) ([1]; po, 10 mg/kg) | half-life ([1]; po, 10 mg/kg) | IC50 (AGS cell; [3]) | IC50 (KRAS^G12D/cRAF; numeric values) | AUC(0-t) (in vivo) | half-life (in vivo) | IC50 (AGS cell; AGS, read-out: AGS cell IC50 (nM)) | AUC(0-t) ([1]; iv, 2 mg/kg) | half-life ([1]; iv, 2 mg/kg) | bioavailability ([1]; po, 10 mg/kg)
[2H]C([2H])([2H])OCC12CCC(CN(c3nc(OC[C@@]45CCCN4C[C@H](F)C5)nc4c(F)c(-c5cc(O)cc6ccc(F)c(C#C)c56)ncc34)C1)N2 (stereo partly drawn) [Example 2, 5-ethynyl-6-fluoro-4-(8-fluoro-2-(((2R,7aS)-2-fluorotetrahydro-1H-pyrrolizin-7a(5H)-yl)methoxy)-4-(1-((methoxy-d3)methyl)-3,8-diazabicyclo [3.2.1]octan-3-yl)pyrido[4,3-d]pyrimidin-7-yl)naphthalen-2-ol] | < 50 nM | 0.05 to 0.5 µM | 0.602 µg·h/mL | 8.3 h | – | – | – | – | – | – | – | –
C#Cc1c(F)ccc2cc(O)cc(-c3ncc4c(N5CC6CCC(C=C)(C5)N6)nc(OC[C@@]56CCCN5C[C@H](F)C6)nc4c3F)c12 (stereo partly drawn) [Example 5, 5-ethynyl-6-fluoro-4-(8-fluoro-2-(((2R,7aS)-2-fluorotetrahydro-1H-pyrrolizin-7a(5H)-yl)methoxy)-4-(1-vinyl-3,8-diazabicyclo[3.2.1]octan-3-yl)pyrido[4,3-d]pyrimidin-7-yl)naphthalen-2-ol] | – | – | 0.489 µg·h/mL | 6.3 h | 15 nM | 0.072 µM | – | – | – | – | – | –
C#Cc1c(F)ccc2cc(O)cc(-c3ncc4c(N5CC6CCC(C(C)OC)(C5)N6)nc(OC[C@@]56CCCN5C[C@H](F)C6)nc4c3F)c12 (stereo partly drawn) [Example 12, 5-ethynyl-6-fluoro-4-(8-fluoro-2-(((2R,7aS)-2-fluorotetrahydro-1H-pyrrolizin-7a(5H)-yl)methoxy)-4-(1-(1-methoxyethyl)-3,8-diazabicyclo[3.2.1]octan-3-yl)pyrido[4,3-d]pyrimidin-7-yl) naphthalen-2-ol] | < 50 nM | 0.05 to 0.5 µM | 1.74 µg·h/mL | 7.2 h | – | – | – | – | – | – | – | –
[2H]C([2H])([2H])OCC12CCC(CN(c3nc(OC[C@@]45CCCN4C[C@H](F)C5)nc4c(F)c(-c5cc(O)c(F)c6ccc(F)c(C#C)c56)ncc34)C1)N2 (stereo partly drawn) [Example 14, 5-ethynyl-1,6-difluoro-4-(8-fluoro-2-(((2R,7aS)-2-fluorotetrahydro-1H-pyrrolizin-7a(5H)-yl)methoxy)-4-(1-((methoxy-d3)methyl)-3,8-diazabicyclo[3.2.1]octan-3-yl)pyrido[4,3-d]pyrimidin-7-yl)naphthalen-2-ol] | > 500 nM | – | – | – | – | – | 0.607 µg·h/mL | 5.8 h | – | – | – | –
C#Cc1c(F)ccc2cc(O)cc(-c3ncc4c(N5CC6CCC(COCC)(C5)N6)nc(OC[C@@]56CCCN5C[C@H](F)C6)nc4c3F)c12 (stereo partly drawn) [Example 32, 4-(4-(1-(ethoxymethyl)-3,8-diazabicyclo[3.2.1]octan-3-yl)-8-fluoro-2-(((2R,7aS)-2-fluorotetrahydro-1H-pyrrolizin-7a(511)-yl)methoxy)pyrido[4,3-d]pyrimidin-7-yl)-5-ethynyl-6-fluoronaphthalen-2-ol] | – | 0.05 to 0.5 µM | 2.2 µg·h/mL | 4.6 h | – | – | – | – | < 50 nM | – | – | –
[2H]C([2H])([2H])C12CCC(CN(c3nc(OC[C@@]45CCCN4C[C@H](F)C5)nc4c(F)c(-c5cc(O)cc6ccc(F)c(C#C)c56)nc(OC)c34)C1)N2 (stereo partly drawn) [Example 38, 5-ethynyl-6-fluoro-4-(8-fluoro-2-(((2R,7aS)-2-fluorotetrahydro-1H-pyrrolizin-7a(5H)-yl)methoxy)-5-methoxy-4-(1-(methyl-d3)-3,8-diazabicyclo [3.2.1]octan-3-yl)pyrido [4,3-d]pyrimidin-7-yl)naphthalen-2-ol] | 50 to 500 nM | < 0.05 µM | 0.115 µg·h/mL | 9.2 h | – | – | – | – | – | – | – | –
[2H]C([2H])([2H])[C@@]12CC[C@@H](CN(c3nc(OC[C@@]45CCCN4C[C@H](F)C5)nc4c(F)c(-c5cc(O)cc6ccc(F)c(C#C)c56)ncc34)C1)N2 [Example 43, 5-ethynyl-6-fluoro-4-(8-fluoro-2-(((2R,7aS)-2-fluorotetrahydro-1H-pyrrolizin-7a(5 H)-yl)methoxy)-4-((1R,5S)-1-(methyl-d3)-3,8-diazabicyclo[3.2.1]octan-3-yl)pyrido[4,3-d]pyrimidin-7-yl)naphthalen-2-ol] | – | – | 0.733 µg·h/mL | 15.7 h | 1.5 nM | 0.0046 µM | – | – | – | 0.214 µg·h/mL | 5.4 h | 5.8%
[2H]C([2H])([2H])OC[C@@]12CC[C@@H](CN(c3nc(OC[C@@]45CCCN4C[C@H](F)C5)nc4c(F)c(-c5cc(O)cc6ccc(F)c(C#C)c56)nc(OC)c34)C1)N2 [Example 50, 5-ethynyl-6-fluoro-4-(8-fluoro-2-(((2R,7aS)-2-fluorotetrahydro-1H-pyrrolizin-7a(5H)-yl)methoxy)-5-methoxy-4-((1R,5S)-1-((methoxy-d3)methyl)-3,8-diazabicyclo[3.2.1]octan-3-yl)pyrido[4,3-d]pyrimidin-7-yl)naphthalen-2-ol] | – | – | 2.66 µg·h/mL | 6.4 h | 6.5 nM | 0.01 µM | – | – | – | 1.1 µg·h/mL | 6.7 h | 48%
[2H]C([2H])([2H])OC[C@]12CC[C@H](CN(c3nc(OC[C@@]45CCCN4C[C@H](F)C5)nc4c(F)c(-c5cc(O)cc6ccc(F)c(C#C)c56)nc(OCC)c34)C1)N2 [Example 51, 4-(5-ethoxy-8-fluoro-2-(((2R,7aS)-2-fluorotetrahydro-1H-pyrrolizin-7a(5H)-yl)methoxy)-4-((1S,5R)-1-((methoxy-d3)methyl)-3,8-diazabicyclo[3.2.1]octan-3-yl)pyrido[4,3-d]pyrimidin-7-yl)-5-ethynyl-6-fluoronaphthalen-2-ol] | – | – | 1.12 µg·h/mL | 6.2 h | – | – | – | – | – | 1.57 µg·h/mL | 5.4 h | 28%
C#Cc1c(F)ccc2cc(O)cc(-c3ncc4c(N5C[C@@H]6CC[C@](CC)(C5)N6)nc(OC[C@@]56CCCN5C[C@H](F)C6)nc4c3F)c12 [Example 54, 4-(4-((1R,5S)-1-ethyl-3,8-diazabicyclo[3.2.1]octan-3-yl)-8-fluoro-2-(((2R,7aS)-2-fluorotetrahydro-1H-pyrrolizin-7a(5H)-yl)methoxy)pyrido[4,3-d]pyrimidin-7-yl)-5-eth ynyl-6-fluoronaphthalen-2-ol] | – | – | 1.17 µg·h/mL | 9.8 h | 7.3 nM | 0.055 µM | – | – | – | 0.46 µg·h/mL | 7.7 h | 51%
C#Cc1c(F)ccc2cc(O)cc(-c3ncc4c(N5C[C@H]6CC[C@@](CCF)(C5)N6)nc(OC[C@@]56CCCN5C[C@H](F)C6)nc4c3F)c12 [Example 55, 5-ethynyl-6-fluoro-4-(8-fluoro-4-((1R,5R)-1-(2-fluoroethyl)-3,8-diazabicyclo[3.2.1]octan-3-yl)-2-(((2R,7aS)-2-fluorotetrahydro-1H-pyrrolizin-7a(5H)-yl)methoxy)pyrido[4,3-d]pyrimidin-7-yl)naphthalen-2-ol] | 50 to 500 nM | – | 0.296 µg·h/mL | 7.4 h | – | – | – | – | – | – | – | –
C#Cc1c(F)ccc2cc(O)cc(-c3ncc4c(N5C[C@H]6CC[C@@](C=C)(C5)N6)nc(OC[C@@]56CCCN5C[C@H](F)C6)nc4c3F)c12 [Example 57, 5-ethynyl-6-fluoro-4-(8-fluoro-2-(((2R,7aS)-2-fluorotetrahydro-1H-pyrrolizin-7a(5 H)-yl)methoxy)-4-((1R,5R)-1-vinyl-3,8-diazabicyclo[3.2.1]octan-3-yl)pyrido[4,3-d]pyrimidin-7-yl)naphthalen-2-ol] | – | – | 1.79 µg·h/mL | 4.5 h | 8.1 nM | 0.015 µM | – | – | – | 0.375 µg·h/mL | 5.1 h | 95%
C#Cc1c(F)ccc2cc(O)cc(-c3ncc4c(N5CC6CCC(C5)N6)nc(OC[C@@]56CCCN5C[C@H](F)C6)nc4c3F)c12 [Positive Compounds, reference compound] | – | – | 0.04 µg·h/mL | 1.6 h | – | – | – | – | – | 0.337 µg·h/mL | 3.1 h | 2.4%

Source: patent US20260176262A1, “KRAS INHIBITORS, PREPARATION METHOD THEREFOR, AND PHARMACEUTICAL USE THEREOF” (ABBISKO THERAPEUTICS CO., LTD., priority 2021, published 2026)
